Source: patent US20250145596A1, “HETEROCYCLIC GLP-1 AGONISTS” (Gasherbrum Bio, Inc., priority 2022, published 2025)

Molecular target: T1, GLP-1 Receptor (Homo sapiens, UniProt P43220)
T1 construct: host or cells: HEK293/CRE-Luc
Experiment: GLP-1R agonist cAMP stimulation assay
Format: cell-based
Conditions: HEK293/CRE-Luc cell line stably expressing the GLP-1 Receptor; 30 min at 37° C.; cAMP dynamic 2 Kit
How it was run: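 HEK293 cells stably expressing GLP-1R with CRE-luciferase, 1000 cells/well in DPBS with 0.5 mM IBMX and 0.1% BSA, exposed to compound (½-log dilutions) for 30 min at 37 °C. cAMP measured by HTRF (665/615 nm) after 1 h at room temperature; % activity scaled between vehicle and maximal control.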

T1 sequence (P43220 24-463): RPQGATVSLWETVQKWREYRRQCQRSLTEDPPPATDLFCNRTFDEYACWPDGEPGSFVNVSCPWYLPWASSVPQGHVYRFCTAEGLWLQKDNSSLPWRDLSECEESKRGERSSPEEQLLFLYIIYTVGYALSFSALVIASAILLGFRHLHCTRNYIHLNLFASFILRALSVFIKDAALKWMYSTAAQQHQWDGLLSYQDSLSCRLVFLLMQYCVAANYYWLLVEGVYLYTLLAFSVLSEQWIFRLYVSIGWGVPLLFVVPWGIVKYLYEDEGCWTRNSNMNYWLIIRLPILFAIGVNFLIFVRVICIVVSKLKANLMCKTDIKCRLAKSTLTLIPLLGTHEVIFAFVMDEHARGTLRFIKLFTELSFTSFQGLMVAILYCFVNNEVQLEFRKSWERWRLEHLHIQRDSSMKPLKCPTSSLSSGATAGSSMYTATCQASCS

EC50 [nM]	Structure (SMILES)
< 1	C[C@]1(c2ccc(Cl)cc2F)Oc2cccc(C3CCN(Cc4ncc(-c5nnc(C(F)(F)F)[nH]5)nc4CC4(C#N)CC4)CC3)c2O1 [Example 62, 1-{[3-({4-[(2S)-2-(4-chloro-2-fluorophenyl)-2-methyl-2H-1,3-benzodioxol-4-yl]piperidin-1-yl}methyl)-6-[5-(trifluoromethyl)-4H-1,2,4-triazol-3-yl]pyrazin-2-yl]methyl}cyclopropane-1-carbonitrile]
< 1	CC1(c2ccc(Cl)cc2F)Oc2cccc(C3=CCN(Cc4ncc(-c5nnc(C(F)(F)F)[nH]5)cc4CC4(C#N)CC4)CC3)c2O1 (centres unmarked) [Example 66, 1-((2-((4-(2-(4-chloro-2-fluorophenyl)-2-methylbenzo[d][1,3]dioxol-4-yl)-3,6-dihydropyridin-1(2H)-yl)methyl)-5-(5-(trifluoromethyl)-4H-1,2,4-triazol-3-yl)pyridin-3-yl)methyl)cyclopropane-1-carbonitrile]
< 1	C[C@]1(c2ccc(Cl)cc2F)Oc2cccc(C3CCN(Cc4ncc(-c5nnc(C(F)(F)F)[nH]5)cc4CC4(C#N)CC4)CC3F)c2O1 (single isomer, unassigned) [Example 28]
< 1	CS(=O)(=O)Cc1cc(-c2nnc(C(F)(F)F)[nH]2)cnc1CN1CCC(c2ccc(F)c(OCc3ccc(Cl)cc3F)n2)CC1 [Example 61, 2-[(4-{6-[(4-chloro-2-fluorophenyl)methoxy]-5-fluoropyridin-2-yl}piperidin-1-yl)methyl]-3-(methanesulfonylmethyl)-5-[5-(trifluoromethyl)-4H-1,2,4-triazol-3-yl]pyridine]
1 to 100	Cc1cc(-c2nnn[nH]2)nnc1CN1CCC(c2cccc3c2O[C@@](C)(c2ccc(Cl)cc2F)O3)CC1 [Example 50, 3-({4-[(2S)-2-(4-chloro-2-fluorophenyl)-2-methyl-1,3-benzodioxol-4-yl]piperidin-1-yl}methyl)-4-methyl-6-(1H-1,2,3,4-tetrazol-5-yl)pyridazine]
< 1	CC1(c2ccc(F)cc2Cl)Oc2cccc(C3CCN(Cc4ncc(-c5nnc(C(F)(F)F)[nH]5)cc4CC4(C#N)CC4)CC3)c2O1 (centres unmarked) [Example 4, 1-{[2-({4-[2-(2-chloro-4-fluorophenyl)-2-methyl-2H-1,3-benzodioxol-4-yl]piperidin-1-yl}methyl)-5-[5-(trifluoromethyl)-4H-1,2,4-triazol-3-yl]pyridin-3-yl]methyl}cyclopropane-1-carbonitrile]
< 1	N#CC1(Cc2cc(-c3nnc(C(F)(F)F)[nH]3)cnc2CN2CCC(c3ccnc(OCc4ccc(Cl)cc4F)n3)CC2)CC1 [Example 34, 1-({2-[(4-{2-[(4-chloro-2-fluorophenyl)methoxy]pyrimidin-4-yl}piperidin-1-yl)methyl]-5-[5-(trifluoromethyl)-4H-1,2,4-triazol-3-yl]pyridin-3-yl}methyl)cyclopropane-1-carbonitrile]
< 1	CC1(c2ccc(C(F)(F)F)cc2F)Oc2cccc(C3CCN(Cc4ncc(-c5nnc(C(F)(F)F)[nH]5)cc4CC4(C#N)CC4)CC3)c2O1 (centres unmarked) [Example 8, 1-((2-((4-(2-(2-fluoro-4-(trifluoromethyl)phenyl)-2-methylbenzo[d][1,3]dioxol-4-yl)piperidin-1-yl)methyl)-5-(5-(trifluoromethyl)-4H-1,2,4-triazol-3-yl)pyridin-3-yl)methyl)cyclopropane-1-carbonitrile]
< 1	C[C@]1(c2ccc(Cl)cn2)Oc2cccc(C3CCN(Cc4ncc(-c5nnn[nH]5)cc4CC4(C#N)CC4)CC3)c2O1 [Example 75]
1 to 100	Cc1cc(-c2nnc(C(F)(F)F)[nH]2)nnc1CN1CCC(c2cccc3c2O[C@@](C)(c2ccc(Cl)cc2F)O3)CC1 [Example 49, (S)-3-((4-(2-(4-chloro-2-fluorophenyl)-2-methylbenzo[d][1,3]dioxol-4-yl)piperidin-1-yl)methyl)-4-methyl-6-(5-(trifluoromethyl)-4H-1,2,4-triazol-3-yl)pyridazine]
< 1	N#CC1(Cc2cc(-c3nnc(C(F)(F)F)[nH]3)cnc2CN2CCC(c3cccc(OCc4ccc(Cl)cc4F)n3)CC2)CC1 [Example 32, 1-({2-[(4-{6-[(4-chloro-2-fluorophenyl)methoxy]pyridin-2-yl}piperidin-1-yl)methyl]-5-[5-(trifluoromethyl)-4H-1,2,4-triazol-3-yl]pyridin-3-yl}methyl)cyclopropane-1-carbonitrile]
1 to 100	CS(=O)(=O)Cc1cc(-c2nnc(C(F)(F)F)[nH]2)cnc1CN1CCC(Oc2cccc(Cc3ccc(Cl)cc3F)n2)CC1 [Example 87]
1 to 100	N#CC1(Cc2cc(-c3nnc(C(F)(F)F)[nH]3)cnc2CN2CCN(c3ncc(F)c(OCc4ccc(Cl)cc4F)n3)CC2)CC1 [Example 45, 1-((2-((4-(4-((4-chloro-2-fluorobenzyl)oxy)-5-fluoropyrimidin-2-yl)piperazin-1-yl)methyl)-5-(5-(trifluoromethyl)-4H-1,2,4-triazol-3-yl)pyridin-3-yl)methyl)cyclopropane-1-carbonitrile]
1 to 100	C[C@]1(c2ccc(Cl)cc2F)Oc2cccc(C3CCN(Cc4ncc(-c5nnc(C(F)(F)F)[nH]5)cc4CC4CCOC4)CC3)c2O1 (some centres unmarked) [Example 79]
